“And” between values parts separate entries of the source, which are not always exact repeats. Identical values can stand only once. Counter-ions that a name gives are not always drawn.
Columns and labels:
[1] = test system: oxazolone-induced mouse ear swelling; assay: Model for inhibition of topical inflammation (oxazolone-induced mouse ear swelling); type: in vivo; details: BALB/c mice, ear thickness 24 hours after oxazolone challenge
Protocol: Model for Inhibition of Topical Inflammation. […] Left ears were untreated. The thickness of both ears of each animal was measured with a Dyer model micrometer gauge 24 hours after oxazolone challenge, and the net increase in thickness of right ears versus left ears was calculated for each animal. Percent inhibition was calculated according to the formula: [(Iv−It)/Iv]×100, where Iv and It respectively refer to the average net increase in right ear thickness (mm) for vehicle and candidate compound treated mice.

[2] = target: T1, rat liver HMG-CoA reductase (Rattus norvegicus, UniProt P51639); assay: Cell-free HMG-CoA reductase inhibition assay; type: biochemical; details: concentration required to inhibit rat liver HMG-CoA reductase by 50%; read-out: IC50 HMG-CoA R
T1 sequence (P51639 1-887): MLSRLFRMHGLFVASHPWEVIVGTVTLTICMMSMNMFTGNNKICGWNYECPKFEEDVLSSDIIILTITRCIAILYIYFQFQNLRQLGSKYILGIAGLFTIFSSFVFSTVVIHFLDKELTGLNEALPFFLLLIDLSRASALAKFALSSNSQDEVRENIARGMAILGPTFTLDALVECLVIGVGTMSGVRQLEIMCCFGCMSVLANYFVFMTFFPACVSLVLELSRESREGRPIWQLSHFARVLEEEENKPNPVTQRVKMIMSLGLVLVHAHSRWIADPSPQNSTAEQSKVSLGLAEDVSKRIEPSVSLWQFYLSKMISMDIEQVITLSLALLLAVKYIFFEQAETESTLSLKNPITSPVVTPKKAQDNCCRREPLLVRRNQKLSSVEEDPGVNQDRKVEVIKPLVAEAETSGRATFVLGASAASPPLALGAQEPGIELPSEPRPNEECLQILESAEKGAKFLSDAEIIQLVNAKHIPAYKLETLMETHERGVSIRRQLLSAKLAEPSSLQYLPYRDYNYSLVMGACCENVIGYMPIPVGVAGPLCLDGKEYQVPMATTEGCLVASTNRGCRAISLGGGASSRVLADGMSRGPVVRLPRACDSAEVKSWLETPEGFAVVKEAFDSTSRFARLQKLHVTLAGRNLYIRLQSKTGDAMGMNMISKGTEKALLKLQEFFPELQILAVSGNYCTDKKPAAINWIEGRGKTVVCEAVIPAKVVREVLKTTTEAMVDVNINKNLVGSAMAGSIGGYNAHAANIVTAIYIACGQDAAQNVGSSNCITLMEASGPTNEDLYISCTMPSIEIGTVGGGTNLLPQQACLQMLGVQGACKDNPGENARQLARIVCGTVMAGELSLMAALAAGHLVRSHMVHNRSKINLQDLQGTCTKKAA
Protocol: An example of a cell-free HMG-CoA reductase assay involves radiometric procedures described in Shum et al., Ther. Drug Monit. 20:41-49 (1998), incorporated herein by reference. Briefly, about 150 μg/mL of HMG-CoA reductase can be incubated with a candidate compound, together with about 12 μM [^14C]HMG-CoA and about 200 μM NADPH in about 200 μL 0.2M phosphate buffer (pH about 7.2) for about 0.5 h at about 37° C. The [^14C]mevalonate that forms can be converted under acidic conditions to [^14C]mevalonolactone and separated from un-reacted substrate, for example, by ion-exchange chromatography, and then quantified, for example, by liquid scintillation counting.

[3] = target: T2, human recombinant p38α protein kinase (Homo sapiens, UniProt Q16539); assay: Human p38α MAP kinase inhibition assay (cell-free); type: biochemical; details: inhibition of phosphorylation of myelin basic protein by recombinant human p38α MAP kinase by 50%; Table III; read-out: IC50 p38α MAPK
T2 construct: purchased UBI (Upstate Biotechnology) 14-251; host or cells: E. coli
T2 sequence (Q16539 whole entry): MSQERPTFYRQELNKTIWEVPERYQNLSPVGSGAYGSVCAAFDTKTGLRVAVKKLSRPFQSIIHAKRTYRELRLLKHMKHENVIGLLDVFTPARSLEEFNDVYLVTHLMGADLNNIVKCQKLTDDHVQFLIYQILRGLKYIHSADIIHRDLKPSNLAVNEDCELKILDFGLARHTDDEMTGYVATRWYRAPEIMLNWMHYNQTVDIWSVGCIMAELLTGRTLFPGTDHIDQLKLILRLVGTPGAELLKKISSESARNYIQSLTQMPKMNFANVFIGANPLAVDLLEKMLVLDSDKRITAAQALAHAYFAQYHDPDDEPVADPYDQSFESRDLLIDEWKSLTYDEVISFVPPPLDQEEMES
Protocol: In vitro cell-free p38α MAP kinase inhibition assays were conducted by the method as described in Clerk et al., FEBS Lett., 426:93-96 (1998) for a number of lactones in formulas I/IIa/IIb. Briefly, human recombinant p38α protein kinase expressed in E. coli (UBI #14-251) was used. Myelin basic protein (MBP, UBI #13-110) was employed as substrate, and microtiter plate wells were coated with MBP (0.01 mg/ml) overnight at 4° C. Candidate compound and/or vehicle was preincubated with 0.075 μg/mL enzyme in modified HEPES buffer pH 7.4 at 25° C. for 15 minutes. The reaction was initiated by addition of 100 μM ATP and allowed to proceed for another 60 minutes. The reaction was terminated by aspirating the solution. Phosphorylated MBP was detected by incubation with a mouse monoclonal IgG2a anti-phosphoMBP antibody. Bound anti-phosphoMBP antibody was quantitated by incubation with a HRP conjugated goat anti-mouse IgG.

[4] = test system: LPS-induced TNF-α release from human peripheral blood mononuclear cells; assay: Whole cell LPS-stimulated TNF-α release assay; type: cell-based; details: inhibition of LPS-induced TNF-α release from human peripheral blood mononuclear cells by 50%
Protocol: The procedure as described in Welker et al., Int. Arch. Allergy and Immunol. 109:110-115 (1996) can be followed. Briefly, a candidate compound and/or vehicle can be preincubated with human peripheral blood mononuclear leukocytes (PBML, 5×10^5/ml) cells in AIM-V medium pH 7.4 for 2 hours. Lipopolysaccharide (LPS, 25 ng/ml) can be added to stimulate the cells, which can be incubated overnight at 37° C. TNF-α cytokine levels in the conditioned medium can then be quantitated using a sandwich ELISA kit.

[5] = dose 2 × 0.3 mg topical to right ear
[6] = dose 2 × 1 mg topical to right ear
[7] = dose 2 × 2 mg topical to right ear

SMILES	% Inh. [1, 5]	% Inh. [1, 7]	further results
CC(C)c1c(C(=O)Nc2ccccc2)c(-c2ccccc2)c(-c2ccc(F)cc2)n1CC[C@@H]1C[C@@H](O)CC(=O)O1 [Atorvastatin lactone]	40%	50%	% Inh. ([1]; dose 2 × 0.3 mg topical to right ear, listed as atorvastatin lactone): 50% and 58% and 40%; % Inh. [1, 6]: 58%
CC(C)c1c(C(=O)Nc2ccccc2)c(-c2ccccc2)c(-c2ccc(F)cc2)n1CC[C@@H](O)C[C@@H](O)CC(=O)O [Atorvastatin sodium]	9%	63%	% Inh. [1, 6]: 31%
CCC(C)c1nn(-c2ccnc(Nc3ccccc3)c2)c(-c2ccc(F)cc2)c1/C=C/[C@@H](O)C[C@@H](O)CC(=O)O (stereo partly drawn) [Example 10a, (3R,5S,E)-7-(3-sec-butyl-5-(4-fluorophenyl)-1-(2-(phenylamino)pyridin-4-yl)-1H-pyrazol-4-yl)-3,5-dihydroxyhept-6-enoic acid calcium salt]	–	–	IC50 [2]: 3 nM; IC50 [3]: 11 µM; IC50 [4]: 21 µM
O=C(O)C[C@H](O)C[C@H](O)CCc1c(-c2ccccc2)nn(-c2ccnc(Nc3ccccc3)n2)c1-c1ccccc1 [Example 11c, (3R,5R)-7-(3,5-diphenyl-1-(2-(phenylamino)pyrimidin-4-yl)-1H-pyrazol-4-yl)-3,5-dihydroxyheptanoic acid]	–	–	IC50 [4]: 18 µM
CC(C)n1c(/C=C/C(O)CC(O)CC(=O)O)c(-c2ccc(F)cc2)c2ccccc21 (centres unmarked) [Fluvastatin sodium]	28%	–	–
COc1ccc2c(c1)c(CC(=O)O)c(C)n2C(=O)c1ccc(Cl)cc1 [Indomethacin]	44%	–	–
O=C([O-])C[C@H](O)C[C@H](O)/C=C/c1c(C2CC2)nc2ccccc2c1-c1ccc(F)cc1.O=C([O-])C[C@H](O)C[C@H](O)/C=C/c1c(C2CC2)nc2ccccc2c1-c1ccc(F)cc1.[Ca+2] [Pitavastatin calcium]	9%	60%	–
CC[C@H](C)C(=O)O[C@H]1C[C@H](O)C=C2C=C[C@H](C)[C@H](CC[C@@H](O)C[C@@H](O)CC(=O)O)[C@H]21 [Pravastatin sodium]	24%	–	–
CC(C)c1nc(N(C)S(C)(=O)=O)nc(-c2ccc(F)cc2)c1/C=C/[C@@H](O)C[C@@H](O)CC(=O)O [Rosuvastatin sodium]	20%	–	–
